The experiment concerns the target T1, human GPR119 (Homo sapiens, UniProt Q8TDV5).
T1 sequence (Q8TDV5 1-308 limits assumed): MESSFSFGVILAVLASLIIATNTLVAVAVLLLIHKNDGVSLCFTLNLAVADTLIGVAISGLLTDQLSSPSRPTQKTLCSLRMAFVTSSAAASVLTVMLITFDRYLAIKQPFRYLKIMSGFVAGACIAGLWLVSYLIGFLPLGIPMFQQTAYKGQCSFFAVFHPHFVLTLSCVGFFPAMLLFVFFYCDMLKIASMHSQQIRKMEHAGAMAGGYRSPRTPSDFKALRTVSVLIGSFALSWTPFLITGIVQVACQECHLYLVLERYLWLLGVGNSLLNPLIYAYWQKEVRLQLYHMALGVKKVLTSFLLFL
Put plainly: Measurement of GPR119 signaling by cAMP (LANCE cAMP kit or HTRF) in HEK293 cells transfected with human GPR119. The settings on record: agonist cAMP response in HEK293 cells stably transfected with human GPR119; patent does not say which of the two cAMP formats (LANCE or HTRF). It counts as cell-based. In outline:
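LANCE TR-FRET cAMP readout; detection with Eu-SA/biotin-cAMP tracer for 3 h, signal converted to cAMP via standard curve, duplicates, 4-parameter fit vs DMSO basal and internal agonist maximum.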
On to `O=C(Cc1ccc(OCC[C@@H]2C[C@@H]2C2CCN(c3ncc(Cl)cn3)CC2)cc1F)N1CC(n2ccnc2)C1` [Example 118], for which the EC50 is 1.1 nM.

`COc1cc(OCC[C@@H]2C[C@@H]2C2CCN(c3ncc(Cl)cn3)CC2)ccc1CC(=O)N1CCC1` [Example 26, 1-(azetidin-1-yl)-2-[4-(2-{(1S,2R)-2-[1-(5-chloropyrimidin-2-yl)piperidin-4-yl]cyclopropyl}ethoxy)-2-methoxyphenyl]ethanone] yielded an EC50 of 7.1 nM. The result for `COCc1cnc(N2CCC([C@H]3C[C@H]3CCOc3cc(F)c(CC(=O)N4CC(C(C)(C)O)C4)c(F)c3)CC2)nc1` [Example 222] reads 2 nM; that for `O=C(Cc1ccc(OCC[C@@H]2C[C@@H]2C2CCN(c3ncc(Cl)cn3)CC2)cc1F)NC1CCC(F)(F)C1` (stereo partly shown) [Example 95], 2.3 nM; that for `CC1CN(C(=O)Cc2ccc(OCC[C@@H]3C[C@@H]3C3CCN(c4ncc(Cl)cn4)CC3)cc2F)Cc2nnc(C(F)(F)F)n21` (stereo partly shown) [Example 175], 1.1 nM. The result for `O=C(Cc1ccc(OCC[C@@H]2C[C@@H]2C2CCN(c3ncc(Cl)cn3)CC2)cc1F)N1Cc2cn[nH]c2C1` [Example 120] reads 1 nM.

Regarding `COc1cnc(N2CCC([C@H]3C[C@H]3CCOc3cc(F)c(CC(=O)N4CCOCC4)c(F)c3)CC2)nc1` [Example 215], the response was half-maximal at 0.29 nM (EC50). As to `CC1c2nc(C(F)(F)F)nn2CCN1C(=O)Cc1ccc(OCC[C@@H]2C[C@@H]2C2CCN(c3ncc(Cl)cn3)CC2)cc1F` (stereo partly shown) [Example 177], the EC50 was 0.6 nM.

Compound `CN(Cc1n[nH]c(=O)[nH]1)C(=O)Cc1ccc(OCC[C@@H]2C[C@@H]2C2CCN(c3ncc(Cl)cn3)CC2)cc1F` [Example 158] had a 50% effective concentration (EC50) of 6.6 nM.

Take `CN(CCCO)C(=O)Cc1ccc(OCC[C@@H]2C[C@@H]2C2CCN(c3ncc(Cl)cn3)CC2)cc1F` [Example 153]: the EC50 turned out to be 1.6 nM. `CCOCc1cnc(N2CCC([C@H]3C[C@H]3CCOc3ccc(CC(=O)N(C)C)c(F)c3)CC2)nc1` [Example 204] returned a concentration giving a half-maximal response (EC50) of 1.2 nM.

Turning to `CCOCc1cnc(N2CCC([C@H]3C[C@H]3CCOc3ccc(CC(=O)N4CC(O)C4)c(F)c3)CC2)nc1` [Example 199, 2-(4-{2-[(1S,2R)-2-{1-[5-(ethoxymethyl)pyrimidin-2-yl]piperidin-4-yl}cyclopropyl]ethoxy}-2-fluorophenyl)-1-(3-hydroxyazetidin-1-yl)ethanone], the EC50 came out at 1.9 nM.

For the compound `COCc1cnc(N2CCC([C@H]3C[C@H]3CCOc3ccc(CC(=O)N4CCC4)c(Cl)c3)CC2)nc1` [Example 22], it took 0.83 nM to reach a half-maximal effect (EC50). On to `COCc1cnc(N2CCC([C@H]3C[C@H]3CCOc3cc(F)c(Cc4nnco4)c(F)c3)CC2)nc1` [Example 247], for which the concentration giving a half-maximal response (EC50) stood at 6.7 nM. The result for `O=C(Cc1ccc(OCC[C@@H]2C[C@@H]2C2CCN(c3ncc(Cl)cn3)CC2)cc1F)N1CCn2nc(C(F)(F)F)nc2C1` [Example 134] reads 1 nM.

On to `O=C(c1cn2c(n1)CN(C(=O)Cc1ccc(OCC[C@@H]3C[C@@H]3C3CCN(c4ncc(Cl)cn4)CC3)cc1F)CC2)C1CC1` [Example 144], for which the EC50 came out at 7.2 nM.

`O=C(Cc1ccc(OCC[C@@H]2C[C@@H]2C2CCN(c3ncc(Cl)cn3)CC2)cc1F)N1CC(F)(F)C1` [Example 71] returned a concentration giving a half-maximal response (EC50) of 1.2 nM. For the compound `O=C(Cc1ccc(OCC[C@@H]2C[C@@H]2C2CCN(c3ncc(Cl)cn3)CC2)cc1F)N1CC(O)C1` [Example 65], a half-maximal effect (EC50) was put at 0.22 nM. The result for `CCc1cnc(N2CCC([C@H]3C[C@H]3CCOc3ccc(CC(=O)N4CCC4)c(Cl)c3)CC2)nc1` [Example 21] reads 0.19 nM.

One may read the EC50 as the concentration needed to bring the measured effect to its halfway point. Higher therefore signals weaker potency.

For the origin of these results see US9018224B2, “Substituted cyclopropyl compounds useful as GPR119 agonists” (Merck Sharp & Dohme Corp., priority 2011, dated 2015).
